Data: patent US20240002499A1, “ANTI-CLIC1 PROTEIN ANTIBODIES AND THE DIAGNOSTIC AND THERAPEUTIC USES THEREOF” (Universita' Degli Studi di Milano, priority 2020, published 2024)
Entries after “also recorded” stand apart in the source; their conditions may differ.

Assays:
[1] = test system: COLO201; experiment: Trans well migration and invasion assay; assay type: cell-based; settings: COLO201 WT, 72 h
Description: The overexpression of tmCLIC1 in the most aggressive cell lines of colorectal cancer and its pivotal role in regulation of cell cycle progression and proliferation, opens a question on the function of tmCLIC1 activity on migration and invasion potential of CRCs, that makes colorectal cancer still uncurable. We performed a Trans well assay to understand whether CLIC1 impairment could affect the migration and invasion potential of COLO201. Cells were plated after 60 hours of serum deprivation on a porous membrane, permeable only to growth factor, in contact to complete medium. The resulting chemo-attractant gradient leads the migrative cells to cross the membranes that are then stained with DAPI to visualize the nuclei. […] For invasion assays, we coated with Matrigel the porous membrane to mimic the extracellular matrix that cells must disrupt to invade tissues and mucosa.
Cells were plated after 60 hours of serum deprivation on a […] porous membrane, permeable only to growth factor, in contact to complete medium. Membranes were cut, stained with DAPI dye, and included with mowiol. Cover glasses were examined under Zeiss Examiner A1 fluorescence microscope with a Zeiss 40×/0.75 NA water immersion lens.

[2] = test system: Metalloproteinase 7 (MMP7); experiment: Western blot of Metalloproteinase 7 in COLO201; assay type: cell-based; settings: COLO201, 72 h of treatment
[3] = cited from earlier work
[4] = test system: pMAP38; experiment: Western blot of phosphorylated MAP38 in COLO201; assay type: cell-based; settings: COLO201, 72 h of treatment
[5] = test system: human glioblastoma cells; experiment: ROS production in human glioblastoma cells in primary culture; assay type: cell-based
Description: In the subsequent functional experiment, ROS production was measured over time. The graph in FIG. 11 relates to the acquisition of fluorescence signals proportional to the amount of cytoplasmic ROS in glioblastoma cells. The cells were treated with both the antibody and the tmCLIC1 channel blocker.

[6] = biological target: T1, CLIC1 (Homo sapiens, UniProt O00299); experiment: Whole-cell patch clamp on HEK cells transfected with CLIC1 plasmid; assay type: cell-based; settings: HEK cells overexpressing CLIC1; voltage steps from −60 to +80 mV; IAA94 50 μM
T1 construct: expressed in transfected cells; host or cells: HEK cells
Description: FIG. 17. Current/voltage relationship of CLIC1 membrane current in whole-cell patch clamp experiments. HEK cells were transfected with CLIC1 plasmid to overexpress the CLIC1 protein. After recording control current (filled cycles; n=5) cells were perfused alternatively with the polyclonal antibody (open triangles; n=7), tmCLIComab (inverse open triangles; n=10) and with 50 μM IAA94 (filled squared; n=11). The whole cells current is expressed as a current density.
The reference sequence of the CLIC1 protein used in the experiments described in the present patent application is filed at UniProt under number UniProtKB—000299 (CLIC1 human), and described in the article Harrop S. J. et al., “Crystal structure of a soluble form of the intracellular chloride ion channel CLIC1 (NCC27) at 1.4-Å Resolution”; The Journal of Biological Chemistry, Vol. 276 No. 48, November 30, pp. 44993-45000 (2001).
The potential was set on the basis of the resting potential of each cell (between 0 and −80 mV). The CLIC1-mediated chlorine currents were isolated from other ion currents by mathematical subtraction of the residual current following perfusion of 100 μM IAA94 dissolved in the external solution.

[7] = test system: human glioblastoma cells; experiment: Growth curves of human glioblastoma cells in primary culture; assay type: cell-based; settings: glioblastoma cells, FIG. 9
From the text: The primary glioblastoma cell lines, already tested for stem cell properties and carcinogenicity, were kindly supplied by Professor T. Florio's laboratory at Genoa University (Genoa, Italy). The cells were obtained from a surgical biopsy performed in the Neurosurgery Department of IRCCS-AOU San Martino IST (Genoa, Italy), from patients who had not received any treatment before the operation. The samples were histologically classified as GB grade IV (according to the WHO classification), and were used after obtaining the patients' informed consent and the approval of the Institutional Ethics Committee (IEC). The cells were cultured in stem cell-permissive medium consisting of Dulbecco's Modified Eagle's Medium (DMEM) and F12-GlutaMAX at the ratio of 1:1, supplemented with 1×B27 (Thermo Fisher Scientific), […] of fibroblast growth factor (FGF, Miltenyi Biotec), […] of human epidermal growth factor (EGF, Miltenyi Biotec) and 1% penicillin/streptomycin (Pen/Strep, […]) (Thermo Fisher Scientific).
The cells were seeded in 24-well plates (20,000 cells/well) and counted after 24, 48, 72 and 96 hours to construct the growth curve. The cells were collected and centrifuged, and the resuspended pellet was diluted 1:1 with Trypan Blue. An automated counter (Countess II, Thermo Fisher Scientific) was used to count the cells. All data were normalized to their controls.

[8] = biological target: T2, tmCLIC1 ion channel (Mus musculus, UniProt Q9Z1Q5); experiment: Whole-cell patch clamp on BV2 microglial cells with β-amyloid; assay type: cell-based, mice; settings: blocker perfused after tmCLIC1omab
T2 construct: endogenous in cells; host or cells: BV-2 mouse microglial cell line
From the text: The microglial cells used (BV-2) originated from an immortalised cell line deriving from C57BL/6 mice and commonly marketed. The culture medium used was RPMI (Thermo Fisher Scientific) with the addition of 10% FBS (Euroclone) and 1% Pen/Strep ([…], Thermo Fisher Scientific).
The microelectrodes were obtained from borosilicate capillaries with a diameter of 1.5 mm. Micropipettes were produced with a P-97 Brown-Flaming puller (Sutter Instruments, Novato, CA), with which the capillaries were forged to a tip diameter of 1-1.5 μm and electrical resistance of 5-8 MΩ.
The perforated patch clamp configuration was used for the whole-cell experiments, employing the antibiotic gramicidin (final concentration in pipette 5 μg/ml) which forms pores in the membrane that are only permeable to monovalent cations; in this way, the cytoplasmic concentration of the chloride ion remains unchanged throughout the experiment. The ion currents were digitised at 5 kHz and filtered at 1 kHz. Clampex 9.2 was used as the data acquisition and analysis programme.
In the time-course experiments, the potential was set on the basis of the resting potential of each cell, and a voltage step of +60 mV was applied every 5 seconds. The current measured is that observed at the end of the voltage step lasting 800 ms. When the amplitude of the current reaches a constant value, the antibody and IAA94 are added in sequence. […]

[9] = test system: COLO201; experiment: COLO201 spheroids, 3D culture; assay type: cell-based; settings: treated 24 to 96 hours, area normalized on initial area
Description: To evaluate whether tmCLIC1omab is able to penetrate across tumor spheroids, a 3D culture was performed. After the complete formation of spheroids, treatments were added and the area was measured every 24 hours up to 96 hours. The area at each time point was then normalized on the initial spheroids' area.
Spheroids were formed with hanging-drop method and then plated in rounded 96 plates coated with 5% of agar. After the complete formation of spheroids, treatments were added and the area was measured every 24 hours up to 96 hours. The area at each time point was then normalized on the initial spheroids' area.

[10] = test system: tumour cells; settings: both in vitro and in vivo; cited from earlier work

C[C@]1(C2CCCC2)Cc2cc(OCC(=O)O)c(Cl)c(Cl)c2C1=O [IAA94, R(+)-[(6,7-dichloro-2-cyclopentyl-2,3-dihydro-2-methyl-1-oxo-1H-inden-5-yl)-oxy]acetic acid, reference compound]
migration (number of migrative nuclei) versus control [1]: significant lower number of migrative nuclei | invasion (number of invasive nuclei) versus control ([1]; Matrigel-coated membrane): the same behavior seen for migration assay | expression of Metalloproteinase 7 [2]: mainly abolished | usability in vivo / side effects [3]: unusable in vivo for its side effects | expression of pMAP38 [4]: downregulated | fall in ROS production ([5]; FIG. 11 legend, versus control): about fourfold | reduction of the slope of the ROS increase curve ([5]; fluorescence signals proportional to cytoplasmic ROS): about fivefold | inhibition of CLIC1 ionic whole-cell current [6]: maximum inhibition | growth rate compared with Clic1−/− knockout cells [7]: the same growth rate | further decrease in membrane current after antibody treatment [8]: only generates a minimal decrease in current | spheroids' area / proliferation of spheroids versus control [9]: significantly smaller compared to the control from 48 h; also recorded: impair proliferation of spheroids significantly after 48 hours | proliferation of the tumour cells [10]: drastic slowing
